“And” between values parts separate entries of the source, which are not always exact repeats. Identical values can stand only once.

One may read the T/C as the result in the treated group divided by that in the control group, in per cent.

This test has as its system BDF1 mice, Adenocarcinoma 755 s.c., tumor weight T/C. The test is described as follows: NCI In Vivo Anticancer Drug Screen. Data for tumor model Adenocarcinoma 755 (subcutaneous) in B6D2F1 (BDF1) mice. Conditions: endpoint: mean tumor weight, higher = larger tumour. In outline: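 Compound activity was tested in mice carrying transplanted tumors. Survival or tumor size was measured, and each value is the treated-group measurement divided by that of the vehicle-treated control group (T/C).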

Setting [1] is: dose: 50.0 mg/kg/injection, schedule: Q01DX011 (sc), vehicle: steriod suspending solution.
The mark [2] stands for this setting: dose: 31.0 mg/kg/injection, schedule: Q01DX011 (ip), vehicle: methylcellulose (MC).

Regarding `CC(=O)OCC(=O)[C@@]1(O)CC[C@H]2[C@@H]3CCC4=CC(=O)CC[C@]4(C)[C@H]3[C@@H](O)C[C@@]21C`, the T/C by setting is: (dose: 1.13 mg/kg/injection, schedule: Q01DX011 (sc), vehicle: steriod suspending solution) 225 % of control; (dose: 2.25 mg/kg/injection, schedule: Q01DX011 (sc), vehicle: steriod suspending solution) 109 % of control; (dose: 2.5 mg/kg/injection, schedule: Q01DX011 (ip), vehicle: steriod suspending solution) 60 % of control; (dose: 3.75 mg/kg/injection, schedule: Q01DX011 (sc), vehicle: steriod suspending solution) 117 % of control; (dose: 4.5 mg/kg/injection, schedule: Q01DX011 (sc), vehicle: steriod suspending solution) 153 % of control; (dose: 5.0 mg/kg/injection, schedule: Q01DX011 (ip), vehicle: steriod suspending solution) 73 % of control. For the same molecule, the T/C (dose: 5.0 mg/kg/injection, schedule: Q01DX011 (sc), vehicle: steriod suspending solution) is 56 % of control; the T/C (dose: 7.5 mg/kg/injection, schedule: Q01DX011 (sc), vehicle: steriod suspending solution) was 85 % of control; the T/C (dose: 9.0 mg/kg/injection, schedule: Q01DX011 (sc), vehicle: steriod suspending solution) was 54 % of control; the T/C (dose: 10.0 mg/kg/injection, schedule: Q01DX006 (iv), vehicle: steriod suspending solution) was 88 % of control; the T/C (dose: 10.0 mg/kg/injection, schedule: Q01DX011 (ip), vehicle: steriod suspending solution) is 50 % of control; the T/C (dose: 10.0 mg/kg/injection, schedule: Q01DX011 (sc), vehicle: steriod suspending solution) is 33 % of control. The T/C (dose: 20.0 mg/kg/injection, schedule: Q01DX006 (iv), vehicle: steriod suspending solution) was 32 % of control; the T/C (dose: 20.0 mg/kg/injection, schedule: Q01DX011 (ip), vehicle: steriod suspending solution) is 17 % of control; the T/C (dose: 20.0 mg/kg/injection, schedule: Q01DX011 (sc), vehicle: steriod suspending solution) is 63 % of control; the T/C (dose: 30.0 mg/kg/injection, schedule: Q01DX011 (sc), vehicle: steriod suspending solution) is 19 % of control and 28 % of control; the T/C (dose: 31.25 mg/kg/injection, schedule: Q01DX011 (sc), vehicle: steriod suspending solution) was 19 % of control; the T/C (dose: 40.0 mg/kg/injection, schedule: Q01DX006 (iv), vehicle: steriod suspending solution) is 66 % of control. Besides, the T/C reads like this: (dose: 40.0 mg/kg/injection, schedule: Q01DX011 (sc), vehicle: steriod suspending solution) 15 % of control; (dose: 45.0 mg/kg/injection, schedule: Q01DX011 (sc), vehicle: steriod suspending solution) 27 % of control; under setting [1], 16 % of control; (dose: 62.5 mg/kg/injection, schedule: Q01DX011 (sc), vehicle: steriod suspending solution) 21 % of control; (dose: 70.0 mg/kg/injection, schedule: Q01DX001 (sc), vehicle: steriod suspending solution) 34 % of control and 41 % of control; (dose: 70.0 mg/kg/injection, schedule: Q07DX002 (sc), vehicle: steriod suspending solution) 17 % of control. The T/C runs as follows: (dose: 80.0 mg/kg/injection, schedule: Q01DX006 (iv), vehicle: steriod suspending solution) 19 % of control; (dose: 125.0 mg/kg/injection, schedule: Q01DX011 (sc), vehicle: steriod suspending solution) 2 % of control; (dose: 140.0 mg/kg/injection, schedule: Q01DX001 (sc), vehicle: steriod suspending solution) 23 % of control and 43 % of control; (dose: 160.0 mg/kg/injection, schedule: Q01DX006 (iv), vehicle: steriod suspending solution) 28 % of control; (dose: 280.0 mg/kg/injection, schedule: Q01DX001 (sc), vehicle: steriod suspending solution) 32 % of control and 46 % of control; (dose: 280.0 mg/kg/injection, schedule: Q07DX002 (sc), vehicle: steriod suspending solution) 14 % of control.
On to `Nc1nc(SCc2ccccc2)c2ncn(Cc3ccccc3)c2n1`, for which the T/C by setting is: (dose: 62.5 mg/kg/injection, schedule: Q01DX011 (ip), vehicle: methylcellulose (MC)) 28 % of control; (dose: 125.0 mg/kg/injection, schedule: Q01DX011 (ip), vehicle: methylcellulose (MC)) 14 % of control; (dose: 250.0 mg/kg/injection, schedule: Q01DX011 (ip), vehicle: methylcellulose (MC)) 7 % of control.
Take `CSc1ncc(Br)c(=S)[nH]1`: the T/C (dose: 15.0 mg/kg/injection, schedule: Q01DX011 (ip), vehicle: methylcellulose (MC)) is 74 % of control and the T/C under setting [2] is 70 % of control.
`O=CNC(Cc1ccc(N(CCCl)CCCl)cc1)C(=O)O` (stereo unspecified): the T/C is, setting by setting: (dose: 1.25 mg/kg/injection, schedule: Q01DX011 (ip), vehicle: carboxymethylcellulose (CMC)) 94 % of control; (dose: 1.25 mg/kg/injection, schedule: Q01DX011 (ip), vehicle: saline) 87 % of control; (dose: 2.5 mg/kg/injection, schedule: Q01DX011 (ip), vehicle: carboxymethylcellulose (CMC)) 54 % of control; (dose: 2.5 mg/kg/injection, schedule: Q01DX011 (ip), vehicle: saline) 91 % of control; (dose: 5.0 mg/kg/injection, schedule: Q01DX011 (ip), vehicle: carboxymethylcellulose (CMC)) 31 % of control and 50 % of control; (dose: 5.0 mg/kg/injection, schedule: Q01DX011 (ip), vehicle: saline) 71 % of control. In addition, the T/C runs as follows: (dose: 10.0 mg/kg/injection, schedule: Q01DX011 (ip), vehicle: carboxymethylcellulose (CMC)) 23 % of control; (dose: 10.0 mg/kg/injection, schedule: Q01DX011 (ip), vehicle: methylcellulose (MC)) 34 % of control; (dose: 10.0 mg/kg/injection, schedule: Q01DX011 (ip), vehicle: saline) 66 % of control; (dose: 20.0 mg/kg/injection, schedule: Q01DX011 (ip), vehicle: methylcellulose (MC)) 34 % of control; (dose: 40.0 mg/kg/injection, schedule: Q01DX011 (ip), vehicle: carboxymethylcellulose (CMC)) 2 % of control; (dose: 40.0 mg/kg/injection, schedule: Q01DX011 (ip), vehicle: methylcellulose (MC)) 23 % of control. In addition, the T/C (dose: 80.0 mg/kg/injection, schedule: Q01DX011 (ip), vehicle: methylcellulose (MC)) was 4 % of control.
`O=c1[nH]c(=O)c2[nH]c(N=Nc3ccc(N(CCCl)CCCl)cc3)nc2[nH]1`: the T/C was 74 % of control (dose: 25.0 mg/kg/injection, schedule: Q01DX011 (ip), vehicle: saline); 56 % of control (dose: 50.0 mg/kg/injection, schedule: Q01DX011 (ip), vehicle: saline); 6 % of control and 19 % of control (dose: 100.0 mg/kg/injection, schedule: Q01DX011 (ip), vehicle: saline).
On to `CN(CC(=O)O)C(=N)N`, for which the T/C by setting is: (dose: 1500.0 mg/kg/injection, schedule: Q#A X022 (ip), vehicle: water) 86 % of control; (dose: 2500.0 mg/kg/injection, schedule: Q#A X022 (ip), vehicle: water) 66 % of control.
With `CCOc1nc(N)nc2nc[nH]c12`, the T/C (dose: 8.0 mg/kg/injection, schedule: Q01DX011 (ip), vehicle: methylcellulose (MC)) was 88 % of control; the T/C (dose: 16.0 mg/kg/injection, schedule: Q01DX011 (ip), vehicle: methylcellulose (MC)) was 55 % of control; the T/C under setting [2] is 59 % of control.
With `NC(=O)CSc1nc(N)nc2nc[nH]c12`, the T/C runs as follows: (dose: 63.0 mg/kg/injection, schedule: Q01DX011 (ip), vehicle: carboxymethylcellulose (CMC)) 113 % of control; (dose: 125.0 mg/kg/injection, schedule: Q01DX011 (ip), vehicle: carboxymethylcellulose (CMC)) 67 % of control; (dose: 250.0 mg/kg/injection, schedule: Q01DX011 (ip), vehicle: carboxymethylcellulose (CMC)) 48 % of control; (dose: 500.0 mg/kg/injection, schedule: Q01DX011 (ip), vehicle: carboxymethylcellulose (CMC)) 33 % of control.
As to `COC1=C(N)C(=O)c2nc(-c3nc(C(=O)O)c(C)c(-c4ccc(OC)c(OC)c4O)c3N)ccc2C1=O`, the T/C (dose: 0.02 mg/kg/injection, schedule: Q01DX011 (ip), vehicle: water) was 72 % of control; the T/C (dose: 0.04 mg/kg/injection, schedule: Q01DX011 (ip), vehicle: water) was 47 % of control; the T/C (dose: 0.08 mg/kg/injection, schedule: Q01DX011 (ip), vehicle: water) was 55 % of control; the T/C (dose: 0.16 mg/kg/injection, schedule: Q01DX011 (ip), vehicle: water) was 4 % of control; the T/C (dose: 0.25 mg/kg/injection, schedule: Q01DX006 (ip), vehicle: water) is 41 % of control; the T/C (dose: 0.5 mg/kg/injection, schedule: Q01DX006 (ip), vehicle: water) is 10 % of control. The T/C was 36 % of control (dose: 50.0 micrograms/kg/injection, schedule: Q01DX011 (ip), vehicle: water) and 30 % of control (dose: 75.0 micrograms/kg/injection, schedule: Q01DX011 (ip), vehicle: water).
`C[C@]12CC[C@H](O)C[C@H]1CC[C@@H]1[C@@H]2CC[C@]2(C)[C@@H](C3=CC(=O)OC3)[C@@H](O)C[C@]12O`: the T/C runs as follows: (dose: 3.0 mg/kg/injection, schedule: Q01DX011 (sc), vehicle: steriod suspending solution) 91 % of control; (dose: 25.0 mg/kg/injection, schedule: Q01DX011 (sc), vehicle: steriod suspending solution) 80 % of control; under setting [1], 110 % of control.

Values taken from PubChem BioAssay AID180 (DTP/NCI, 2004).
